“And” between values parts separate entries of the source, which are not always exact repeats. Identical values can stand only once. Like-named read-outs stand apart in the source and are kept apart here.

In one test the test system is P. falciparum Dd2-2D4. Nature of the test: P. falciparum asexual blood stage (ABS) growth assay, SYBR Green, 72 h, wild-type parasites. The format is cell-based, Plasmodium falciparum. Particulars: Plasmodium falciparum, DD2; SI Fig 16b; values on -log scale; read-out: ABS - Dd2-2D4 (converted).
The target of another test is T1, PfcProRS (Plasmodium falciparum, UniProt Q8I5R7).
T1 construct: made in house; host or cells: E. coli SoluBL-21
The format is binding. Particulars: replicates 1-3.

For a further test, the target named is HsProRS (Homo sapiens, UniProt P07814). Nature of the test: TR-FRET ligand displacement assay with tracer MAT379 (CoraFluor-1-Halo and anti-His6 antibody formats). The format is binding. The arrangement: made in house; host or cells: E. coli SoluBL-21. (Time-resolved FRET reads energy transfer from a long-lived donor to a nearby acceptor.)
Sequence of HsProRS (P07814 996-1512): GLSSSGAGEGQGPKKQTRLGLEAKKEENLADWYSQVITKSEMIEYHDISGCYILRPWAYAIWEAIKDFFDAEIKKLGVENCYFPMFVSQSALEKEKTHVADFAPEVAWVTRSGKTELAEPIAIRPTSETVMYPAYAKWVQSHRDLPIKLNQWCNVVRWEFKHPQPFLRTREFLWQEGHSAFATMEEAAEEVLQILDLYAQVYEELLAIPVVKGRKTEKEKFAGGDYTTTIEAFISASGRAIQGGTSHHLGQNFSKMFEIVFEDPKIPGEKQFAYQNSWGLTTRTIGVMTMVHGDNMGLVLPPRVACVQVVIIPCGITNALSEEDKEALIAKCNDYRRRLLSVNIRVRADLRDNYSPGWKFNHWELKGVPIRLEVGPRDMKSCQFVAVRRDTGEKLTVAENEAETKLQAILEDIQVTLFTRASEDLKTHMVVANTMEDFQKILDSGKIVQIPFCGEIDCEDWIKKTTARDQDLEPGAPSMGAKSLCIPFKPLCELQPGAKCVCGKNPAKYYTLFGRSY

T1 sequence (Q8I5R7 249-746): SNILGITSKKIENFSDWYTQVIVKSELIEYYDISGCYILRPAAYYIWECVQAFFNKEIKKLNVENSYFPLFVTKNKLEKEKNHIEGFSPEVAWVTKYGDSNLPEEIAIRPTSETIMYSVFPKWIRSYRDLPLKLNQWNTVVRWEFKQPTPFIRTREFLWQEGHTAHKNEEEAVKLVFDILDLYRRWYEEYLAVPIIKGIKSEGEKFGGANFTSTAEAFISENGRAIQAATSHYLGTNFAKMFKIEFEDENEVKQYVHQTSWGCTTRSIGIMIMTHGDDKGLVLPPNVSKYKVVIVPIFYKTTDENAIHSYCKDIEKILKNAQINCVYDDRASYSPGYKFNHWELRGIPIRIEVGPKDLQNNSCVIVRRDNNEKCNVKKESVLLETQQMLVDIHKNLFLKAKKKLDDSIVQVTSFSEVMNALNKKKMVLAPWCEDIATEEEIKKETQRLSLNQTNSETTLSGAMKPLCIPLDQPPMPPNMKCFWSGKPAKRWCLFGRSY

As usually defined, the IC50 is the concentration that inhibits the measured activity by half. In the case of `O=C(NC1CCCCC1)c1nccnc1NC(=O)C1Cc2ccccc2C1` [compound 49], the EC50 with P. falciparum Dd2-2D4 was 6.81 µM. Moreover, the “Normalized response, dose-response replicates (SI Fig 14)” value (“Normalized response” for short) on PfcProRS (Log[inhibitor] (M) -5.000) is 8.45E-01 and 8.81E-01 and 7.61E-01; at PfcProRS (Log[inhibitor] (M) -5.301), 9.54E-01 and 9.61E-01 and 9.77E-01; at PfcProRS (Log[inhibitor] (M) -5.601) it was 1.16E+00 and 9.36E-01 and 1.07E+00; on PfcProRS (Log[inhibitor] (M) -5.904), 8.95E-01 and 1.06E+00 and 1.02E+00; on PfcProRS (Log[inhibitor] (M) -6.208), 1.16E+00 and 9.70E-01 and 1.06E+00; on PfcProRS (Log[inhibitor] (M) -6.509), 1.04E+00 and 1.06E+00 and 1.11E+00. For the same compound, the “Normalized response” value on PfcProRS (Log[inhibitor] (M) -6.796) was 1.05E+00 and 9.78E-01 and 1.11E+00; on PfcProRS (Log[inhibitor] (M) -7.108), 1.04E+00 and 1.10E+00 and 1.05E+00; at PfcProRS (Log[inhibitor] (M) -7.409), 1.08E+00 and 9.76E-01 and 1.10E+00; on PfcProRS (Log[inhibitor] (M) -7.710) it was 9.25E-01 and 1.04E+00 and 1.10E+00; at PfcProRS (Log[inhibitor] (M) -8.000) it was 1.07E+00 and 1.04E+00 and 1.10E+00; at PfcProRS (Log[inhibitor] (M) -8.301) it was 9.50E-01 and 1.14E+00 and 9.21E-01. Moreover, the “Normalized response” value at PfcProRS (Log[inhibitor] (M) -8.602) is 9.83E-01 and 1.05E+00 and 9.81E-01; at PfcProRS (Log[inhibitor] (M) -9.000), 1.05E+00 and 1.09E+00 and 1.08E+00; at PfcProRS (Log[inhibitor] (M) -9.301), 1.08E+00 and 1.02E+00 and 9.82E-01. Besides, the IC50 was greater than 10 µM at HsProRS and greater than 10 µM on HsProRS (read-out: HsProRS IC50 + 100 μM proline, + 100 μM proline). Also, at HsProRS (+ 100 μM proline, 10 μM), the “HsProRS % signal at 10 μM, + 100 μM proline” value is 103%. For the same compound, the “HsProRS % signal at 10 μM” value at HsProRS (no added proline/ATP (-), 10 μM) came out at 90.3%.

Source of the values: article PMC9403976, “Elucidating the path to Plasmodium prolyl-tRNA synthetase inhibitors that overcome halofuginone resistance” (Nature Communications, 2022).
